From US11172674B2, “Preservation solutions” (ORGAN PRESERVATION SOLUTIONS LIMITED, priority 2017, dated 2021)

How the values were obtained:
human cells = conditions: Heeneman et al 1993; cited from earlier work
[1] = Stability of aspirin in preservation solution on storage (HPLC); assay type: physicochemical
Excerpt: FIG. 1 illustrates the stability of aspirin in a preservation solution: HPLC methods were developed to measure the concentration of aspirin and salicylic acid in the Prior Art solution. Aspirin is rapidly hydrolysed to salicylic acid and acetic acid during storage. […] As an example, FIG. 1 illustrates that storage of the solution for 8 weeks results in 100% of the aspirin converting to salicylic acid and the production of equimolar amounts of damaging acetic acid.

Structure (SMILES)	concentration toxic to human cells (human cells)	parent compound remaining ([1]; Prior Art solution, after 8 weeks storage, HPLC)	aspirin converting to salicylic acid ([1]; storage of the prior art solution for 8 weeks)
N [ammonia]	300 µM	–	–
CC(=O)Oc1ccccc1C(=O)O [aspirin, acetylsalicylic acid]	–	none of the parent compound remains	100%
